# Source: patent US20250351832A1, “PHYTOCHEMICALS AS BIOPESTICIDES AND BIOSTIMULANTS” (KAY BEE BIO ORGANICS PVT. LTD., priority 2024, published 2025)
# Like-named read-outs stand apart in the source and are kept apart here.
# What was measured:
# [1] = system: Spodoptera litura; settings: in vivo
# [2] = system: tomato seedlings; assay: Response of tomato plants, greenhouse growth (Ex. 30); type: in vivo; settings: for CCI 5th Day / Plant Height 5th Day / Stem Girth 5th Day: 120 h; for CCI 10th Day / Plant Height 10th Day / Root Length % Increase over control / Stem Girth 10th Day: 240 h; for Plant Height % Increase over pre on 10th Day / Stem Girth % Increase over pre on 10th Day / CCI % Increase over pre on 10th Day / Root Length (cm) 10th Day: tomato seedlings, dose 1 ml/gm/lit
# [3] = system: Spodoptera litura; assay: whole plant or invertebrate; settings: 72 h
# [4] = system: Aphid
# [5] = system: Aphid; settings: 48 h, 1 mL or g/L
# [6] = system: Thrips
# [7] = cited from earlier work; for Phytotonic Effect: Table 13, effect on plants, descriptive
# [8] = system: Spodoptera litura
# [9] = system: Aphid; assay: whole plant or invertebrate; settings: 48 h
# [10] = system: chili seedlings; assay: Response of chili plants, greenhouse growth (Ex. 31); type: in vivo; settings: for CCI 5th Day / Plant Height (cm) 5th Day: 120 h; for CCI 10th Day / Plant Height (cm) 10th Day / Root Lenght % Increase over control: 240 h; for CCI % Increase over pre on 10th Day / Plant Height % Increase over pre on 10th Day / Root Lenght (cm) 10th Day / Stem Girth % Increase over pre on 10th Day: chili seedlings, dose 1 ml/gm/lit
# [11] = system: Alternaria alternata; assay: In vitro poisoned food technique against fungus (Ex. 20); type: cell-based; settings: […]
# [12] = system: Thrips; assay: whole plant or invertebrate; settings: in Gossypium hirsutum, 48 h
# [13] = system: Thrips; settings: 48 h, 1 mL or g/L
# [14] = system: Helicoverpa armigera; settings: in vivo
# [15] = system: Helicoverpa armigera; settings: in vivo; remark: listed apart in the source
# [16] = system: Mite; settings: in vivo
# [17] = system: Mite; settings: in vivo; remark: listed apart in the source
# [18] = read-out: % Corrected Mortality at 72 Hrs.
# [19] = read-out: % Mortality at 72 Hrs.
# [20] = Table 13, descriptive, no test described
# [21] = read-out: % Corrected Mortality at 48 Hrs.
# [22] = read-out: % Mortality at 48 Hrs.
structure (smiles),measurement,setting,value
Cc1ccc(C(C)C)cc1 [p-Cymene],% Corrected Mortality at 72 Hrs.,[1],68.42%
same,% Mortality at 72 Hrs.,[1],70.00%
same,CCI Pre,[2],12.58
same,Plant Height Pre,[2],6.12 cm
same,Stem Girth Pre,[2],1.35 mm
same,CCI 5th Day,[2],14.52
same,Plant Height 5th Day,[2],7.24 cm
same,Stem Girth 5th Day,[2],1.82 mm
same,CCI 10th Day,[2],15.68
same,Plant Height 10th Day,[2],7.84 cm
same,Root Length % Increase over control,[2],21.38%
same,Stem Girth 10th Day,[2],2.06 mm
same,Plant Height % Increase over pre on 10th Day,[2],28.10%
same,Stem Girth % Increase over pre on 10th Day,[2],52.59%
same,CCI % Increase over pre on 10th Day,[2],24.64%
same,Root Length (cm) 10th Day,[2],4.04 cm
same,mortality at 1 mL or g/L,[3]; [18],71%
same,mortality at 1 mL or g/L,[3]; [19],72.5%
same,Total No. of dead insect at 48 Hrs.,[4],6.00
same,% Corrected Mortality at 48 Hrs.,[4]; in vivo,54.29%
same,Total No. of dead insect at 48 Hrs.,[5],60.00
same,Total No. of dead insect at 48 Hrs.,[6],57.50
same,% Corrected Mortality at 48 Hrs.,[6]; in vivo,52.78%
same,% Mortality at 48 Hrs.,[6]; in vivo,57.50%
same,Acaricidal Activity - Mode of action,[7]; [20],Showed mortality against
same,Bactericidal Activity - Mode of action,[7]; [20],Strong anti-bacterial
same,Insecticidal Activities - Mode of action,[7]; [20],High mortality against
same,Nematicidal Activity - Mode of action,[7]; [20],Effective in reducing
same,Phytotonic Effect,[7],Trigger plant
same,Total No. of dead insect at 72 Hrs.,"[8]; Spodoptera litura on castor leaves, dose 1 ml/gm/lit., 10 insects/treatment, 72 hrs after application",7.25
same,mortality at 1 mL or g/L,[9]; [21],52.9%
same,mortality at 1 mL or g/L,[9]; [22],60%
same,CCI Pre,[10],9.30
same,Plant Height (cm) Pre,[10],4.29 cm
same,CCI 5th Day,[10],11.47
same,Plant Height (cm) 5th Day,[10],6.13 cm
same,CCI 10th Day,[10],13.48
same,Plant Height (cm) 10th Day,[10],6.48 cm
same,Root Lenght % Increase over control,[10],15.10%
same,CCI % Increase over pre on 10th Day,[10],44.95%
same,Plant Height % Increase over pre on 10th Day,[10],51.05%
same,Root Lenght (cm) 10th Day,[10],3.15 cm
same,Stem Girth % Increase over pre on 10th Day,[10],40.29%
same,inhibition of growth at 1 mL or g/L,[11],34.1%
same,mortality at 1 mL or g/L,[12]; [21],54.3%
same,mortality at 1 mL or g/L,[12]; [22],60%
same,Total No. of dead insect at 48 Hrs.,[13],6.00
same,% Corrected Mortality at 72 Hrs.,[14],65.00%
same,% Mortality at 72 Hrs.,[14],65.00%
same,% Corrected Mortality at 72 Hrs.,[15],65.00%
same,% Mortality at 72 Hrs.,[15],65.00%
CC(C)=CCCC(C)=CC=O [Citral],% Corrected Mortality at 72 Hrs.,[1],50.00%
same,% Mortality at 72 Hrs.,[1],52.50%
same,CCI Pre,[2],11.20
same,Plant Height Pre,[2],6.11 cm
same,Stem Girth Pre,[2],1.35 mm
same,CCI 5th Day,[2],13.34
same,Plant Height 5th Day,[2],7.15 cm
same,Stem Girth 5th Day,[2],1.46 mm
same,CCI 10th Day,[2],14.25
same,Plant Height 10th Day,[2],7.85 cm
same,Root Length % Increase over control,[2],25.08%
same,Stem Girth 10th Day,[2],2.12 mm
same,Plant Height % Increase over pre on 10th Day,[2],28.48%
same,Stem Girth % Increase over pre on 10th Day,[2],56.50%
same,CCI % Increase over pre on 10th Day,[2],27.23%
same,Root Length (cm) 10th Day,[2],4.16 cm
same,mortality at 1 mL or g/L,[3]; [18],52.6%
same,mortality at 1 mL or g/L,[3]; [19],55%
same,Total No. of dead insect at 48 Hrs.,[4],6.50
same,% Corrected Mortality at 48 Hrs.,[4]; in vivo,60.00%
same,% Mortality at 48 Hrs.,[4]; in vivo,65.00%
same,% Mortality at 48 Hrs.,[16],55.00%
same,% Mortality at 48 Hrs.,[17],55.00%
same,Total No. of dead insect at 48 Hrs.,[5],70.00
same,Total No. of dead insect at 48 Hrs.,[6],57.50
same,% Corrected Mortality at 48 Hrs.,[6]; in vivo,52.78%
same,Acaricidal Activity - Mode of action,[7]; [20],Repelling and killing
same,Antifungal Activity - Mode of action,[7]; [20],Inhibited the mycelial
same,Antioxidant Activity - Mode of action,[7]; [20],Induced the overexpression
same,Bactericidal Activity - Mode of action,[7]; [20],High mortality against
same,Insecticidal Activities - Mode of action,[7]; [20],Repellent and Antifeedant
same,Nematicidal Activity - Mode of action,[7]; [20],Strong Nematicidal activity
same,Virucidal Activity - Mode of action,[7]; [20],Increases plant disease
same,Phytotonic Effect,[7],Trigger
same,Total No. of dead insect at 72 Hrs.,"[8]; 72 h, 1 mL or g/L",5.50
same,mortality at 1 mL or g/L,[9]; [21],64.7%
same,mortality at 1 mL or g/L,[9]; [22],70%
same,CCI Pre,[10],8.60
same,Plant Height (cm) Pre,[10],4.47 cm
same,CCI 5th Day,[10],11.02
same,Plant Height (cm) 5th Day,[10],6.30 cm
same,CCI 10th Day,[10],12.02
same,Plant Height (cm) 10th Day,[10],6.79 cm
same,Root Lenght % Increase over control,[10],14.22%
same,CCI % Increase over pre on 10th Day,[10],39.77%
same,Plant Height % Increase over pre on 10th Day,[10],52.01%
same,Root Lenght (cm) 10th Day,[10],3.13 cm
same,Stem Girth % Increase over pre on 10th Day,[10],38.62%
same,inhibition of growth at 1 mL or g/L,[11],48.3%
same,mortality at 1 mL or g/L,[12]; [21],51.4%
same,mortality at 1 mL or g/L,[12]; [22],57.5%
same,Total No. of dead insect at 48 Hrs.,[13],5.75
